Measurements taken from patent US20220402925A1, “COMPOUNDS AND METHODS FOR THE TREATMENT OF CYSTIC FIBROSIS” (Flatley Discovery Lab, LLC, priority 2019, published 2022).

target: T1, F508del CFTR (Homo sapiens, UniProt P13569, DEL508-508); test: Equivalent current assay in primary CF airway epithelial cells (Corrector Activity, NAUC normalized to 3 μM VX809); assay type: cell-based; conditions: NAUC as % of positive control (VX-809)
T1 construct: Primary CF airway epithelial cells were obtained from the UNC Cystic Fibrosis Tissue Procurement and Cell Culture Core; host or cells: primary CF airway epithelial cells
Description: Primary CF airway epithelial cells were obtained from the UNC Cystic Fibrosis Tissue Procurement and Cell Culture Core. The cells are grown at 37° C. in a Heracell 150i incubator using growth media (BEGM, Fischer). Cells were then transferred to differentiation media (airway liquid interface media (ALI) media; Lechner J F and LaVeck M A, J. Tissue Culture Methods 1985, 9: 43-48) for a minimum of 4 weeks on coated Costar transwells. Two days before the assay the mucus on the apical surface of the cells was aspirated after incubating with 200 μL of differentiation media for at least thirty (30) minutes. One day before the assay test compounds were added to the basolateral surface of the cells at various test concentrations dissolved in DMSO. Duplicate wells were prepared giving a n=4 or n=6 protocol.
Cells were treated for 24 hours with various combinations and concentrations of the test articles, reference standard (3 μM VX809, positive control). Compounds stock solutions were prepared in DMSO and diluted 1/1000 into ALI media to their final assay concentration. Cells were treated with combination solutions (2 mL of each dilution) and incubated at 37° C. for 24 h.
For the equivalent current assay, cells on six Transwell (24-well) plates were treated. Each Transwell plate was filled with 200 μl of HBS on the apical surface and 2 ml on the basolateral surface. Plates were placed horizontally in a heated mount at 37° C. and equilibrated for 30 minutes. Resting current was measured for 15 min and then blocked by the apical addition of 5 μM benzamil. After 20 min, CFTR activator (10 μM forskolin) and potentiator (either 1 μM VX-770 or 3 μM FDL176) were added to both the apical and basolateral side to stimulate CFTR. An increase in chloride current is seen as an upward deflection of the trace. After another 60 min, CFTR-172 (a CFTR inhibitor, 20 μM) and/or bumetanide (20 uM) was added to block CFTR mediated chloride current.
The raw data, voltage vs. time and resistance vs. time for the equivalent current assay (sampling interval: 6 minutes) were transferred to Excel (Microsoft Office Professional, version 14.0.7106.5003) for analysis. CFTR specific current was computed from I=V/R (Ohms Law), the average amplitude of the increase in current elicited upon addition forskolin and ending upon addition of the CFTR channel specific blocker CFTR-172. This average is equivalent to the sum of the average forskolin activated and the average VX770-potentiated currents. The average current measured in vehicle (0.1% DMSO) treated cells, IV, was subtracted from the current for the test article, ITA, or from the corrector reference standard VX809 (3 uM, ISTD). For replicate measurements, the averaged vehicle subtracted response for the test article, was normalized to the averaged vehicle subtracted response of the reference corrector VX809 (3 μM).
INSC=(ITA−IV)(ave)/(ISTD−IV)(ave) (Equation 1)
A second endpoint, for the equivalent current assay, evaluated was NAUC, the normalized area under the curve (AUC) measuring the response after addition of forskolin and potentiator to the time point right before the addition of the CFTR inhibitor. The AUC is effectively the average response multiplied by the duration of the response. The AUC of the test article, AUCTA was then corrected by subtracting the average vehicle response, AUCV,ave over the same time range, and normalized as for the inhibitor-sensitive current to the difference of the corrector reference standard VX809 (3 μM VX809r,ave and the vehicle response:
NAUCTA=[AUCTA−AUCV,ave]/[AUCVx809r,ave−AUCV,ave] (Equation 2).
The normalized value for DMSO is 0.0 and for VX-809 alone is 1.0 for both of these equations.
Experiments were run with a minimum of n=4 replicates per concentration. Since the distribution for the ratio of two normal distributions is a Cauchy distribution, the median value must be used for the average and the average deviation must be used for the error of all normalized data. […]

T1 sequence (P13569 with tags, fused parts or gaps DEL508-508): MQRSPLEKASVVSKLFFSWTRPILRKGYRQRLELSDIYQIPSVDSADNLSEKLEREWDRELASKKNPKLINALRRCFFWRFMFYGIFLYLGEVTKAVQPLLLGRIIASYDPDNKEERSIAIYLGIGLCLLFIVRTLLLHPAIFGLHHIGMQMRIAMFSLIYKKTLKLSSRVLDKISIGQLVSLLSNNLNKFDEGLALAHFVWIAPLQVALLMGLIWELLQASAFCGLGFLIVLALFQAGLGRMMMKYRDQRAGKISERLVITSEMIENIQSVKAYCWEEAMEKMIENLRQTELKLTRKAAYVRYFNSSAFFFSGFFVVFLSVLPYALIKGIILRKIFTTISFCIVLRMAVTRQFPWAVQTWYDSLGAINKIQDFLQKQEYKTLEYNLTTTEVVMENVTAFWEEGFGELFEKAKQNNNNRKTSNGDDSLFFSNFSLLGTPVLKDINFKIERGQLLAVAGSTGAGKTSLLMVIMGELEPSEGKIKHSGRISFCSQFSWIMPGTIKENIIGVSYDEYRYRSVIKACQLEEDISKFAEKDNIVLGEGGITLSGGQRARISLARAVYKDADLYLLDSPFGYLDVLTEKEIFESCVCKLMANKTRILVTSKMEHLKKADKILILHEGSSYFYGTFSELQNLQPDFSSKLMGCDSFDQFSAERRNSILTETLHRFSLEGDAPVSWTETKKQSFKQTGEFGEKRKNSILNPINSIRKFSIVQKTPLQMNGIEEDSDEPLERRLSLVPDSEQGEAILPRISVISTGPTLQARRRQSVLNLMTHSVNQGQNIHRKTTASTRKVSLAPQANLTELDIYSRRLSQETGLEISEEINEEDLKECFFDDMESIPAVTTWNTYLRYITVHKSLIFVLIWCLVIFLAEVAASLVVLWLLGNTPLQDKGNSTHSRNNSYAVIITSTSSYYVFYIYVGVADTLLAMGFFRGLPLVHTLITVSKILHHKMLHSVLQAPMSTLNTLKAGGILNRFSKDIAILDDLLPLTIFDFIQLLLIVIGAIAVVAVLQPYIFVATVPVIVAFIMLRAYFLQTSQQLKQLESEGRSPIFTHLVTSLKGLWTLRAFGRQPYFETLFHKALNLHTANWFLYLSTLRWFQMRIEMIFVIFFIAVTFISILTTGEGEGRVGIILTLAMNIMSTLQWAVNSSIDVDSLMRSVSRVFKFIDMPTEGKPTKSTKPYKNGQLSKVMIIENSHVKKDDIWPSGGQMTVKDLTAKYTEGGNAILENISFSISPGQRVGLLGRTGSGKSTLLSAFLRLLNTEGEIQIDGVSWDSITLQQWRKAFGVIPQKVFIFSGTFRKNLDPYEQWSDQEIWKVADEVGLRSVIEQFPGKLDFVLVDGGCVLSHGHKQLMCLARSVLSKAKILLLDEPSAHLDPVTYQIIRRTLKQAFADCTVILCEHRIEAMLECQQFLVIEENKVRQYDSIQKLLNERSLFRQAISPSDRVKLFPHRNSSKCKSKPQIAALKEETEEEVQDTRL

Corr Activity (NAUC)	Structure (SMILES)
+++ (NAUC>70% of positive control)	CN(C(=O)Cn1nc(-c2cccc(Cl)c2)c2oc(C3CC3)cc2c1=O)c1ccc2c(c1)OC(F)(F)O2 [Example 219]
++ (NAUC 70-40% of positive control)	CC(C)(C)NC(=O)c1cc2c(=O)n(CC(=O)N3CCCc4c3ccc3c4OC(F)(F)O3)nc(-c3cccc(C#N)c3)c2o1 [Example 129]
+++ (NAUC>70% of positive control)	CN(C(=O)Cn1nc(-c2cc(Cl)cc(C#N)c2)c2[nH]cnc2c1=O)c1ccc2c(c1)OC(F)(F)O2 [Example 243]
+++ (NAUC>70% of positive control)	CN(C(=O)Cn1nc(-c2cccc(Cl)c2)c2oc(NC(=O)OC(C)(C)C)cc2c1=O)c1ccc2c(c1)OC(F)(F)O2 [Example 181, tert-butyl (7-(3-chlorophenyl)-5-(2-((2,2-difluorobenzo[d][1,3]dioxol-5-yl)(methyl)amino)-2-oxoethyl)-4-oxo-4,5-dihydrofuro[2,3-d]pyridazin-2-yl)carbamate]
+ (NAUC<40% of positive control)	CCN(C(=O)Cn1nc(-c2cc(C)cc(OC)c2)c2[nH]cnc2c1=O)c1ccc2c(c1)OC(F)(F)O2 [Example 272]
+++ (NAUC>70% of positive control)	CCN(C(=O)Cn1nc(-c2cccc(OC(F)(F)F)c2)c2occc2c1=O)c1ccc2c(c1)OC(F)(F)O2 [Example 91]
+++ (NAUC>70% of positive control)	CCN(C(=O)Cn1nc(-c2cccc(C#N)c2)c2oc(C3CC3)cc2c1=O)c1ccc2c(c1)OC(F)(F)O2 [Example 231]
+++ (NAUC>70% of positive control)	N#Cc1cc(-c2nn(CC(=O)N(c3ccc4c(c3)OC(F)(F)O4)C3CC3)c(=O)c3nc[nH]c23)ccc1N1CCCC1 [Example 470]
+++ (NAUC>70% of positive control)	COc1ccc(-c2nn(CC(=O)N(c3ccc4c(c3)OC(F)(F)O4)C3CC3)c(=O)c3nc[nH]c23)cc1C#N [Example 464]
+ (NAUC<40% of positive control)	CCN(C(=O)Cn1nc(-c2cc(C#N)cc(C(F)(F)F)c2)c2occc2c1=O)c1ccc2c(c1)OC(F)(F)O2 [Example 97]
+++ (NAUC>70% of positive control)	CCN(C(=O)Cn1nc(-c2cc(C#N)cc(C(C)(C)C)c2)c2occc2c1=O)c1ccc2c(c1)OC(F)(F)O2 [Example 111]
++ (NAUC 70-40% of positive control)	COc1ccc2cc(-c3nn(CC(=O)N(c4ccc5c(c4)OC(F)(F)O5)C4CC4)c(=O)c4nc[nH]c34)ccc2c1 [Example 412]
+++ (NAUC>70% of positive control)	Cc1cc2c(=O)n(CC(=O)N(c3ccc4c(c3)OC(F)(F)O4)C3CC3)nc(-c3cc(Cl)cc(Cl)c3)c2o1 [Example 77]
+++ (NAUC>70% of positive control)	CCN(C(=O)Cn1nc(-c2cc(C)cc(C#N)c2)c2oc(C(F)F)cc2c1=O)c1ccc2c(c1)OC(F)(F)O2 [Example 189]
++ (NAUC 70-40% of positive control)	CCN(C(=O)Cn1nc(-c2cc(Cl)cc(C#N)c2)c2oc(C(=O)NC(C)(C)C)cc2c1=O)c1ccc2c(c1C)OC(F)(F)O2 [Example 142]
+++ (NAUC>70% of positive control)	CCN(C(=O)Cn1nc(-c2cc(F)cc(F)c2)c2occc2c1=O)c1ccc2c(c1)OC(F)(F)O2 [Example 175]
+++ (NAUC>70% of positive control)	CCN(C(=O)Cn1nc(-c2cc(C)cc(Cl)c2)c2occc2c1=O)c1ccc2c(c1)OC(F)(F)O2 [Example 79]
++ (NAUC 70-40% of positive control)	Cc1cc(F)cc(-c2nn(CC(=O)N(c3ccc4c(c3)OC(F)(F)O4)C3CC3)c(=O)c3nc[nH]c23)c1 [Example 385]
++ (NAUC 70-40% of positive control)	CCN(C(=O)Cn1nc(-c2ccc(OCC(F)(F)F)c(F)c2)c2[nH]cnc2c1=O)c1ccc2c(c1)OC(F)(F)O2 [Example 339]

Corr Activity (NAUC)	Structure (SMILES)
++ (NAUC 70-40% of positive control)	CCN(C(=O)Cn1nc(-c2cccc(OC(F)(F)F)c2)c2occc2c1=O)c1ccc2nc(C)oc2c1 [Example 94]
+++ (NAUC>70% of positive control)	CCN(C(=O)Cn1nc(-c2cc(Cl)cc(OCCOC)c2)c2[nH]cnc2c1=O)c1ccc2c(c1)OC(F)(F)O2 [Example 276]
++ (NAUC 70-40% of positive control)	O=C(Cn1nc(-c2cccc(Cl)c2)c2[nH]cnc2c1=O)N(c1ccc2c(c1)OC(F)(F)O2)C1CC1 [Example 371]
+ (NAUC<40% of positive control)	CCN(C(=O)Cn1nc(-c2cccc(F)c2)c2[nH]ncc2c1=O)c1ccc2c(c1)OC(F)(F)O2 [Example 499]
++ (NAUC 70-40% of positive control)	CCN(C(=O)Cn1nc(-c2cc(F)cc(C#N)c2)c2occ(C(F)(F)F)c2c1=O)c1cc2c(cc1C)OC(F)(F)O2 [Example 179]
+++ (NAUC>70% of positive control)	Cc1cc2c(cc1N(C)C(=O)Cn1nc(-c3cc(F)cc(C#N)c3)c3oc(C(=O)NC(C)(C)C)cc3c1=O)OC(F)(F)O2 [Example 135]
++ (NAUC 70-40% of positive control)	CCN(C(=O)Cn1nc(-c2cccc(OC(F)(F)F)c2)c2oc(C(=O)NC(C)(C)C)cc2c1=O)c1ccc2c(c1)OC(F)(F)O2 [Example 124]
+++ (NAUC>70% of positive control)	Cc1cc(C#N)cc(-c2nn(CC(=O)N(C)c3cc4c(cc3C)OC(F)(F)O4)c(=O)c3nc[nH]c23)c1 [Example 249]
++ (NAUC 70-40% of positive control)	N#Cc1cccc(-c2nn(CC(=O)N3CCCc4c3ccc3c4OC(F)(F)O3)c(=O)c3ccoc23)c1 [Example 52]
+++ (NAUC>70% of positive control)	CCN(C(=O)Cn1nc(-c2cc(F)cc(C#N)c2)c2occc2c1=O)c1ccc2c(c1)OC(F)(F)O2 [Example 177]
++ (NAUC 70-40% of positive control)	CCN(C(=O)Cn1nc(-c2cc(F)cc(F)c2)c2oc(C3CCC3)cc2c1=O)c1ccc2c(c1)OC(F)(F)O2 [Example 235]
+ (NAUC<40% of positive control)	CCN(C(=O)Cn1nc(-c2ccc(C(=O)NCc3ccccc3)c(Cl)c2)c2[nH]cnc2c1=O)c1ccc2c(c1)OC(F)(F)O2 [Example 330]
+++ (NAUC>70% of positive control)	CCN(C(=O)Cn1nc(-c2cccc(C#N)c2)c2oc(C(=O)NC3(C(F)(F)F)CC3)cc2c1=O)c1ccc2c(c1)OC(F)(F)O2 [Example 153]
+++ (NAUC>70% of positive control)	N#Cc1cccc(-c2nn(CC(=O)N(c3ccc4c(c3)OC(F)(F)O4)C3CCC3)c(=O)c3ccoc23)c1 [Example 33, 2-(7-(3-cyanophenyl)-4-oxofuro[2,3-d]pyridazin-5(4H)-yl)-N-cyclobutyl-N-(2,2-difluorobenzo[d][1,3]dioxol-5-yl)acetamide]
+++ (NAUC>70% of positive control)	Cc1cc(C#N)cc(-c2nn(CC(=O)N(C)c3ccc4c(c3)OC(F)(F)O4)c(=O)c3cc(C(=O)NC(C)(C)C)oc23)c1 [Example 132]
+++ (NAUC>70% of positive control)	CCN(C(=O)Cn1nc(-c2cccc(Cl)c2)c2[nH]cnc2c1=O)c1ccc2c(c1)OC(F)(F)O2 [Example 26]
+ (NAUC<40% of positive control)	CCN(C(=O)Cn1nc(-c2ccc(C(F)(F)F)c(Cl)c2)c2[nH]cnc2c1=O)c1ccc2c(c1)OC(F)(F)O2 [Example 328]
+++ (NAUC>70% of positive control)	CCN(C(=O)Cn1nc(-c2cc(C)cc(C#N)c2)c2oc(C(=O)NC3(C(F)(F)F)CC3)cc2c1=O)c1cc2c(cc1C)OC(F)(F)O2 [Example 154]
+++ (NAUC>70% of positive control)	CCc1c(N(CC)C(=O)Cn2nc(-c3cccc(C#N)c3)c3occc3c2=O)ccc2c1OC(F)(F)O2 [Example 55]
